Measured values reported in US20150284674A1, “CAMPYLOBACTER BACTERIA AND DETECTION” (priority 2012, published 2015).
Converted amounts (≈) assume the structure as drawn. “And” between values parts separate entries of the source, which are not always exact repeats. Equal values may be shown once.

Tested on: Campylobacter novel strains
Assay: Antimicrobial susceptibility testing by agar dilution method (MIC);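 note: agar dilution MIC on HBA, used in place of the BSAC-recommended Iso-sensitest agar, across a panel of 14 antimicrobials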
Conditions: for Distribution (%) of MIC (μg/ml) 0.03: % of novel strains with MIC 0.03 μg/ml; for Distribution (%) of MIC (μg/ml) 0.06: % of novel strains with MIC 0.06 μg/ml; for Distribution (%) of MIC (μg/ml) 0.13: % of novel strains with MIC 0.13 μg/ml; for Distribution (%) of MIC (μg/ml) 0.25: % of novel strains with MIC 0.25 μg/ml; for Distribution (%) of MIC (μg/ml) 1: % of novel strains with MIC 1 μg/ml; for Distribution (%) of MIC (μg/ml) 2: % of novel strains with MIC 2 μg/ml; for Distribution (%) of MIC (μg/ml) 4: % of novel strains with MIC 4 μg/ml; for Distribution (%) of MIC (μg/ml) 8: % of novel strains with MIC 8 μg/ml; for Distribution (%) of MIC (μg/ml) 32: % of novel strains with MIC 32 μg/ml; for Distribution (%) of MIC (μg/ml) 64: % of novel strains with MIC 64 μg/ml
[1] = Campylobacter novel strains, agar dilution on HBA

Procedure: Antimicrobial susceptibility testing was performed using the agar dilution method for the Campylobacter novel strains against 14 antimicrobials. […] As the strains were unable to grow on the Iso-sensitest agar (ISA) recommended by the BSAC guidelines, HBA (Table 1) was used as an alternative media.

Compound: CC1(C)S[C@@H]2[C@H](NC(=O)[C@H](N)c3ccccc3)C(=O)N2[C@H]1C(=O)O [Ampicillin]
- MIC50 (Campylobacter): 1 µg/mL (≈ 2.86 µM)
- MIC90 (Campylobacter): 2 µg/mL (≈ 5.72 µM)

Compound: CCN1CCN(C(=O)N[C@@H](C(=O)N[C@@H]2C(=O)N3C(C(=O)O)=C(CSc4nnnn4C)CS[C@H]23)c2ccc(O)cc2)C(=O)C1=O [Cefoperazone]
- MIC50 (Campylobacter): 64 µg/mL (≈ 99.1 µM)
- MIC90 (Campylobacter): 64 µg/mL (≈ 99.1 µM)

Compound: O=C(N[C@H](CO)[C@H](O)c1ccc([N+](=O)[O-])cc1)C(Cl)Cl [Chloramphenicol]
- MIC50 (Campylobacter): 4 µg/mL (≈ 12.4 µM)
- MIC90 (Campylobacter): 8 µg/mL (≈ 24.8 µM)

Compound: O=C(O)c1cn(C2CC2)c2cc(N3CCNCC3)c(F)cc2c1=O [Ciprofloxacin]
- MIC50 (Campylobacter): 0.06 µg/mL (≈ 0.181 µM)
- MIC90 (Campylobacter): 0.06 µg/mL (≈ 0.181 µM)

Compound: CC[C@H]1OC(=O)[C@H](C)[C@@H](O[C@H]2C[C@@](C)(OC)[C@@H](O)[C@H](C)O2)[C@H](C)[C@@H](O[C@@H]2O[C@H](C)C[C@H](N(C)C)[C@H]2O)[C@](C)(O)C[C@@H](C)C(=O)[C@H](C)[C@@H](O)[C@]1(C)O [Ertythromycin, Erythromycin]
- MIC50 (Campylobacter): 1 µg/mL (≈ 1.36 µM)
- MIC90 (Campylobacter): 2 µg/mL (≈ 2.73 µM)

Compound: NC[C@H]1O[C@H](O[C@H]2[C@H](O)[C@@H](O[C@H]3O[C@H](CO)[C@@H](O)[C@H](N)[C@H]3O)[C@H](N)C[C@@H]2N)[C@H](O)[C@@H](O)[C@@H]1O [Kanamycin]
- MIC50 (Campylobacter): 4 µg/mL (≈ 8.26 µM)
- MIC90 (Campylobacter): 4 µg/mL (≈ 8.26 µM)

Compound: [H]/N=C(/N)N[C@H]1[C@H](O)[C@@H](O)[C@H](O[C@@H]2O[C@@H](C)[C@](O)(C=O)[C@H]2O[C@@H]2O[C@@H](CO)[C@H](O)[C@@H](O)[C@@H]2NC)[C@@H](N/C(N)=N\[H])[C@@H]1O [Streptomycin]
- MIC50 (Campylobacter): 1 µg/mL (≈ 1.72 µM)
- MIC90 (Campylobacter): 1 µg/mL (≈ 1.72 µM)

Compound: CN(C)[C@@H]1C(O)=C(C(N)=O)C(=O)[C@@]2(O)C(O)=C3C(=O)c4c(O)cccc4[C@@](C)(O)[C@H]3C[C@@H]12 [Tetracycline]
- MIC50 (Campylobacter): 1 µg/mL (≈ 2.25 µM)
- MIC90 (Campylobacter): 64 µg/mL (≈ 144 µM)

Compound: C=C[C@]1(C)C[C@@H](OC(=O)CSCCN(CC)CC)[C@]2(C)[C@H](C)CC[C@]3(CCC(=O)[C@H]32)[C@@H](C)[C@@H]1O [Tiamulin]
- MIC50 (Campylobacter): 2 µg/mL (≈ 4.05 µM)
- MIC90 (Campylobacter): 2 µg/mL (≈ 4.05 µM)

Compound: Colistin
- Distribution (%) of MIC (μg/ml) 0.03 (agar dilution on HBA): 0%
- Distribution (%) of MIC (μg/ml) 0.06 (agar dilution on HBA): 0%
- Distribution (%) of MIC (μg/ml) 0.13 (agar dilution on HBA): 0%
- Distribution (%) of MIC (μg/ml) 0.25 (agar dilution on HBA): 0%
- Distribution (%) of MIC (μg/ml) 0.50 (% of novel strains with MIC 0.50 μg/ml, agar dilution on HBA): 0%
- Distribution (%) of MIC (μg/ml) 1 (agar dilution on HBA): 0%
- Distribution (%) of MIC (μg/ml) 2 (agar dilution on HBA): 0%
- Distribution (%) of MIC (μg/ml) 4 (agar dilution on HBA): 8.70%
- Distribution (%) of MIC (μg/ml) 8 (agar dilution on HBA): 73.91%
- Distribution (%) of MIC (μg/ml) 32 (agar dilution on HBA): 13.04%
- Distribution (%) of MIC (μg/ml) 64 (agar dilution on HBA): 0%
- MIC50 [1]: 8 µg/mL
- MIC90 [1]: 32 µg/mL

Compound: Gentamycin
- Distribution (%) of MIC (μg/ml) 0.03 (agar dilution on HBA): 0%
- Distribution (%) of MIC (μg/ml) 0.06 (agar dilution on HBA): 0%
- Distribution (%) of MIC (μg/ml) 0.13 (agar dilution on HBA): 0%
- Distribution (%) of MIC (μg/ml) 1 (agar dilution on HBA): 0%
- Distribution (%) of MIC (μg/ml) 2 (agar dilution on HBA): 0%
- Distribution (%) of MIC (μg/ml) 4 (agar dilution on HBA): 0%
- Distribution (%) of MIC (μg/ml) 8 (agar dilution on HBA): 0%
- Distribution (%) of MIC (μg/ml) 32 (agar dilution on HBA): 0%
- Distribution (%) of MIC (μg/ml) 64 (agar dilution on HBA): 0%
- MIC50 [1]: 0.5 µg/mL and 0.50 µg/mL
- MIC90 [1]: 0.5 µg/mL and 0.50 µg/mL

Compound: Polymyxin B
- Distribution (%) of MIC (μg/ml) 0.03 (agar dilution on HBA): 0%
- Distribution (%) of MIC (μg/ml) 0.06 (agar dilution on HBA): 0%
- Distribution (%) of MIC (μg/ml) 0.13 (agar dilution on HBA): 0%
- Distribution (%) of MIC (μg/ml) 0.25 (agar dilution on HBA): 0%
- Distribution (%) of MIC (μg/ml) 1 (agar dilution on HBA): 0%
- Distribution (%) of MIC (μg/ml) 2 (agar dilution on HBA): 0%
- Distribution (%) of MIC (μg/ml) 4 (agar dilution on HBA): 21.74%
- Distribution (%) of MIC (μg/ml) 8 (agar dilution on HBA): 56.52%
- Distribution (%) of MIC (μg/ml) 32 (agar dilution on HBA): 8.70%
- Distribution (%) of MIC (μg/ml) 64 (agar dilution on HBA): 0%
- MIC50 [1]: 8 µg/mL
- MIC90 [1]: 16 µg/mL
